Reference: US12415789B2, “Macrocycles comprising a 4-amido-2,4-pentadienoate moiety for the treatment of hypoxic cancers” (Aarhus Universitet, priority 2019, dated 2025)
Like-named read-outs stand apart in the source and are kept apart here.

Assays:
[1] = tested on: HCT116 cells; assay: Viability assay (CellTiter Blue), HCT116 cells, hypoxia vs normoxia; format: cell-based, human
Procedure: (§1) PANC-1 and HaCat cells (PANC-1: RRID:CVCL 0480, taken from a person, HaCat: RRID:CVCL 0038) were cultured in DMEM (Gibco, Cat #: 21969-035) supplemented with FBS (10%, Gibco, Cat #: A31698-02), Penicillin/Streptomycin (1%, Sigma-Aldrich, Cat #: P0781), and Ala-Gln (200 μM, Sigma-Aldrich, Cat #: G8541). BxPC3 cells (RRID:CVCL 0186, taken from a person) were cultured in RPMI 1640 (Gibco, Cat #: 61870-010) supplemented with FBS (10%) and Penicillin/Streptomycin (1%). U2OS (RRID:CVCL 0042) and HCT116 cells (RRID:CVCL 0291, ATCC CCL-247) were cultured in McCoy's 5A (Sigma cat. no. M9309) supplemented with FBS (10%) and Penicillin/Streptomycin (1%). Cells were grown under normoxic conditions in T75 flasks (Biolite, Thermo Scientific, Cat #: 130190) in a humidified atmosphere with 5% CO2 at 37° C. For hypoxic conditions cells were placed in a modular incubator chamber (MIC-101, Billups-Rothenberg) equipped with a 10-cm dish with milliQ water and flushed with CO2/N2 (5%/95%, BioNERT, AGA Cat #: 100466065) for 8 minutes at 20-25 L/minute. Cells were passaged approximately every third day by trypsination (Sigma-Aldrich, Cat #: T4049) followed by transfer of ⅕^th of the cells to a new flask. All cell cultures were handled aseptically in a laminar air flow bench and grown in sterile-filtered (Jetbiofil, Cat #: FPE204500) medium according to ATCC's recommendations. All human cell lines were correctly identified by short tandem repeat analysis and tested free of mycoplasma contamination by MycoAlert (Lonza, Cat #: LT07-218).
(§2) Cells were seeded in black 96-well plates (2000 cells/well, 75 μL/well, ThermoFisher Scientific, Cat #: 137103) in complete medium. Subsequently, the cells were allowed to adhere to the substratum overnight. The next day, compounds were serially diluted in DMSO as 200× solutions. The 200× solutions of compounds were initially diluted in complete medium to 4× solutions containing 2% DMSO. Finally, the compounds were given to cells by the addition of 25 μL/well in triplicates resulting in 1× solutions of compounds in 100 μL/well. The cells were then incubated under either normoxia or hypoxia. 90 minutes before the end of the experiment, all cells were given CellTiter Blue (20 μL/well, Promega, Cat #: G8080) and reincubated under normoxia for the remaining time of the experiment. The viability of the cells was assessed by measuring fluorescence in a plate reader (ex/em: 552±10/598±10, Tecan Spark 10M). Data were normalized to the two lowest concentrations of compound and fitted to a 4-parameter nonlinear regression in Prism 7.04 for Windows, GraphPad Software, La Jolla Calif. USA. IC50 values were extrapolated as the X value at Y=50%. Results can be found in Table 1 and the corresponding dose-response curves seen in FIGS. 12 to 17 and in FIGS. 9 to 10.

[2] = tested on: PANC-1 cells; assay: Viability assay (CellTiter Blue), PANC-1 cells, hypoxia vs normoxia; format: cell-based, human
Procedure: as §1, §2

[3] = tested on: BxPC3 cells; assay: Viability assay (CellTiter Blue), BxPC3 cells, hypoxia vs normoxia; format: cell-based, human
Procedure: as §1, §2

[4] = tested on: tested cell lines; assay: Viability assays, summary statements across the tested cell lines; format: cell-based, human
Procedure: as §1, with “Cells were passaged approximately every third day by trypsination (Sigma-Aldrich, Cat #: T4049) followed by transfer of ⅕^th of the cells to a new flask. All cell cultures were handled aseptically in a laminar air flow bench and grown in sterile-filtered (Jetbiofil, Cat #: FPE204500) medium according to ATCC's recommendations. All human cell lines were correctly identified by short tandem repeat analysis and tested free of mycoplasma contamination by MycoAlert (Lonza, Cat #: LT07-218).” left out
Cells were seeded in black 96-well plates (2000 cells/well, 75 μL/well, ThermoFisher Scientific, Cat #: 137103) in complete medium. […] The viability of the cells was assessed by measuring fluorescence in a plate reader (ex/em: 552±10/598±10, Tecan Spark 10M). […]

[5] = Chemical stability measurements (UPLC-UV); settings: 20 μM in sodium tetraborate buffer (pH 10) with 30% MeOH, 23° C., up to 9 hours
Procedure: The stability of compounds under neutral or basic conditions were tested by dissolving compounds to 20 μM in PBS (pH 7.4) or sodium tetraborate buffer (pH 10) both mixed with 30% MeOH. The mixtures were shaken vigorously and injected immediately in the HPLC. The reactions were allowed to run at 23° C. for 9 hours and injections were performed once per hour. The concentrations of unreacted compounds were determined by UPLC-UV (Agilent 1260 infinity II) at 262 nm by injecting 5 μL on a PFP column (Poroshell 120 PFP, 3.0×100 mm, 2.7 micron). The compounds were eluted by a 1 mL/minute-gradient of acetonitrile in H2O from 5% to 95% over 8 minutes, then 95% for 1 minute and then 5% acetonitrile in H2O in 30 seconds.

| Compound | IC50 ([1]; HCT116, hypoxic conditions, read-out: IC50 (μM) [1]) | Index [3] Selectivity index (IC50 [2]/IC50 [1]) ([1]; HCT116, normoxic IC50 / hypoxic IC50) | IC50 ([1]; HCT116, normoxic conditions, read-out: IC50 (μM) [2]) | IC50 ([2]; PANC1, hypoxic conditions, read-out: IC50 (μM) [1]) | Index [3] Selectivity index (IC50 [2]/IC50 [1]) ([2]; PANC1, normoxic IC50 / hypoxic IC50) | IC50 ([2]; PANC1, normoxic conditions, read-out: IC50 (μM) [2]) | IC50 ([3]; BxPC3, hypoxic conditions, read-out: IC50 (μM) [1]) | Index [3] Selectivity index (IC50 [2]/IC50 [1]) ([3]; BxPC3, normoxic IC50 / hypoxic IC50) | IC50 ([3]; BxPC3, normoxic conditions, read-out: IC50 (μM) [2]) | selectivity indices [4] | chemical stability at elevated pH [5] |
| --- | --- | --- | --- | --- | --- | --- | --- | --- | --- | --- | --- |
| C=C1/C=C/C(=O)N(C)CC(=O)N[C@@H](CCCCNC(=O)OC(C)(C)C)COc2cc(CCCCCCCCCCCC)ccc2C(=O)N1 [PH911, tert-butyl (S,E)-(4-(16-dodecyl-7-methyl-11-methylene-5,8,13-trioxo-2,3,4,5,6,7,8,11,12,13-decahydrobenzo[n][1]oxa[4,7,12]-triazacyclopentadecin-3-yl)butyl)carbamate] | 0.73 µM | 4.2 | 3 µM | 0.76 µM | 8.1 | 6.2 µM | 1.2 µM | 3.9 | 4.7 µM | four to eight-fold | – |
| C=C1/C=C/C(=O)N(C)CC(=O)N[C@@H]([C@H](O)C(N)=O)C(=O)OC([C@H](C)CCCCCC)[C@H](C)C(=O)N1 (some centres unmarked) [rakicidin D] | – | – | – | – | – | – | – | – | – | – | decreased stability |
